Among the data in ChEMBL document CHEMBL5727585, “Carboxylic acid URAT1 inhibitor containing diarylmethane structure, preparation method and use thereof” (2020) are IC50 values, retold here.

The structures appear in SMILES notation.

The test concerns the target T1, Solute carrier family 22 member 12 (Homo sapiens, UniProt Q96S37).
T1 sequence (Q96S37 whole entry): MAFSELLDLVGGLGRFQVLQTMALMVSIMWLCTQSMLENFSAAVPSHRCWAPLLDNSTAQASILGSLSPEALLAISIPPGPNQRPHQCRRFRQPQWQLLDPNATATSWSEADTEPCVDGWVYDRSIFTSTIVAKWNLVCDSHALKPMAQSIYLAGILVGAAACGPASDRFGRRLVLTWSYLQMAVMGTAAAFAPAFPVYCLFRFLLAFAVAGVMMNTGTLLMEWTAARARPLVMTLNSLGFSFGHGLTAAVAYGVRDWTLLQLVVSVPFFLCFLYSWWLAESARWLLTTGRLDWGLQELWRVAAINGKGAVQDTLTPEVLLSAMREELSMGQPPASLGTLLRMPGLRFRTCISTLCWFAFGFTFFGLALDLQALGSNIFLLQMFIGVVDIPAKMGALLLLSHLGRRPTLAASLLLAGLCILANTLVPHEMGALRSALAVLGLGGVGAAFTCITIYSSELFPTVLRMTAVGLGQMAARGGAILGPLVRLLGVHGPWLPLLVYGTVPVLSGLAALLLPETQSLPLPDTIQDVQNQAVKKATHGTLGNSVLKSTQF
Put plainly: IC50 for Inhibition of the Test Compounds on URAT1: After trypsin digestion, the expression cells (HEK293) stably expressing URAT1 gene and mock cells were all inoculated into lysine-coated 24-well culture plates, with the cell inoculation density being 1×10^5 cells/well, and cultured in incubator at 37° C., 5% CO2 and saturated humidity for 2 days. The culture fluid in the culture plate was removed, and the cultured cells were washed twice with DPBS and subjected to warm bath in DPBS buffer solution at 37° C. for 10 min, and then a solution (500 μL) containing radioactive labeled probe substrate ([8-14C] uric acid) and 10 μM test compound (or blank) was used to substitute for DPBS, with the concentration of [8-14C] uric acid being 30 μM and the radiation intensity per well being 0.867 μCi. After 2 min, the reaction was terminated with ice-bathed DPBS buffer solution and washing was carried out for three times. Then 0.1 mol/L NaOH (500 μL) was added into each well to lyse the cells, the lysate was extracted into a scintillation vial and a scintillation fluid (Aquasol-2, 3 mL) was added, and the intensity of radioactivity in the sample was measured using a Tri-Carb 2910TR liquid scintillation analyzer (PerkinElmer, Waltham, USA). […] […].

As a reminder, the IC50 is the concentration that gives 50% inhibition.

In the case of `CC(C)(Sc1nnc(Br)n1-c1ccc(C2CC2)c2ccccc12)C(=O)O`, the IC50 turned out to be 2.13 µM.
In the case of `O=C(O)CCc1nnc(Br)n1-c1ccc(C2CC2)c2ccccc12` it was 1.81 µM.
